The test system of the first assay is SARS-CoV-2. Kind of assay: microbe, parasite or virus in culture. The note with it: Severe acute respiratory syndrome coronavirus 2, Vero C1008, 48 h.
In turn, `CCCC1C(=O)N2C(N(C)C)=Nc3ccc(C)cc3N2C1=O` (stereo unspecified) [APAZONE] gave an IC50 of more than 20 µM.
`CNc1ccc(/C=C/c2ccc(OCCOCCOCCF)nc2)cc1` [FLORBETAPIR] came in with an IC50 of more than 20 µM.
As to `O=C1Nc2ccc(I)cc2/C1=C/c1cc(Br)c(O)c(Br)c1`, the IC50 was more than 20 µM.
In turn, `CC(=O)N(CC(C)C(=O)O)c1c(I)cc(I)c(N)c1I` (stereo unspecified) [IOCETAMIC ACID] showed an IC50 of more than 20 µM.
The same measure, in the same setting: with `NC(=O)C(c1ccccc1)(c1ccc(F)cc1)c1ccc(F)cc1` [SENICAPOC] the figure was more than 20 µM.
Compound `COc1ccc2c(c1)CC[C@@H](CN(C)CC(=O)O)[C@H]2c1ccccc1` showed an IC50 of more than 20 µM.
`CCOC(=O)[C@H](CCc1ccccc1)N[C@@H](C)C(=O)N1CCC[C@H]1C(=O)O` showed an IC50 of more than 20 µM.
`N#Cc1nn(-c2c(Cl)cc(C(F)(F)F)cc2Cl)c(N)c1[S+]([O-])C(F)(F)F` (stereo unspecified) [FIPRONIL] had an IC50 of more than 20 µM.
The same measure, in the same setting: the value for `CC(=O)OCC1OC(n2ccc(=O)[nH]c2=O)C(OC(C)=O)C1OC(C)=O` (stereo unspecified) was more than 20 µM; that for `CCC(=O)C1(c2cccc(O)c2)CCN(C)CC1` [KETOBEMIDONE] was more than 20 µM; that for `C[C@@H]1O[C@@H]1P(=O)(O)O` [FOSFOMYCIN] was more than 20 µM.
For the compound `CN(C)CCCn1c(=O)c2ccccc2c2ccccc21` [FANTRIDONE], the IC50 was more than 20 µM.
On the same count and under the same terms, with `Cc1cc(-n2nc3ccc(Cl)cc3n2)c(O)c(C(C)(C)C)c1` [BUMETRIZOLE] the figure was more than 20 µM.
On the same count and under the same terms, with `CC12CCC3C(CC[C@H]4CC(=O)CCC34C)C1CCC2C(=O)CO` (stereo partly specified) the figure was more than 20 µM.
Consider `Cc1cccc(NC(=O)N[C@@H]2N=C(c3ccccc3)c3ccccc3N(C)C2=O)c1` [L-365260], for which the IC50 is more than 20 µM.
Turning to `NC(CO)Cc1ccccc1` (stereo unspecified), the IC50 is more than 20 µM.
On to `CCCCCCCCCCCCCCCC[N+](C)(C)CCN(Cc1ccc(OC)cc1)c1ncccn1` [THONZONIUM], for which the IC50 is more than 20 µM.
On the same count and under the same terms, with `COc1cc2c(cc1OC)-c1cc3ccc(OC)c(OC)c3c[n+]1CC2` [PALMITINE] the figure was more than 20 µM; with `Cc1ccc(S(=O)(=O)Nc2nc3ccccc3nc2Nc2ccc3nsnc3c2)cc1`, more than 20 µM.
On to `C=C1c2cccc(O)c2C(=O)C2=C(O)[C@]3(O)C(=O)C(C(N)=O)=C(O)[C@@H](N(C)C)[C@@H]3[C@@H](O)[C@H]12` [METHACYCLINE], for which the IC50 is more than 20 µM.
Still for that read-out and setting: with `CN(C(=O)C(c1ccccc1)c1ccccc1)[C@H](CN1CC[C@H](O)C1)c1ccccc1` [ASIMADOLINE] the figure was more than 20 µM; with `N=C(N)NC(=O)c1nc(Cl)c(N2CCCCCC2)nc1N` [N,N-HEXAMETHYLENEAMILORIDE], more than 20 µM.
Regarding `C(#CCN1CCCC1)CN1CCCC1`, the IC50 was more than 20 µM.
On the same count and under the same terms, with `CCCCCCC1C(=O)O[C@H](C)[C@H](NC(=O)c2cccc(NC=O)c2O)C(=O)O[C@@H](C)[C@@H]1OC(=O)CC(C)C` (stereo partly specified) the figure was more than 20 µM.
On the same count and under the same terms, with `CC(CC(c1ccccc1)c1ccccc1)N(C)C` (stereo unspecified) [TRIMETHYLDIPHENYLPROPYLAMINE] the figure was more than 20 µM; with `O=C(CCCN1CCC(n2c(=S)[nH]c3ccccc32)CC1)c1ccc(F)cc1` [TIMIPERONE], more than 20 µM.
Regarding `OCc1cccnc1` [NICOTINYL ALCOHOL], the IC50 is more than 20 µM.
Regarding `O=C(c1ccc(/C=C/c2n[nH]c3ccccc23)cc1)N1CCNCC1` [KW-2449], the IC50 was more than 20 µM.
Take `[2H]C([2H])([2H])OCCCN1CCC(NC(=O)c2cc(Cl)c(N)c3c2OCC3)CC1`: the IC50 was more than 20 µM.
In the case of `CC(=O)[C@@]1(O)CC[C@H]2[C@@H]3CCC4=CC(=O)CC[C@]4(C)[C@H]3CC[C@@]21C` [HYDROXYPROGESTERONE], the IC50 is more than 20 µM.
Same read-out and setting: the value for `COc1ccc(S(=O)(=O)N2c3ccc(Cl)cc3[C@](O)(c3ccccc3Cl)[C@@H]2C(=O)N2CCC[C@H]2C(N)=O)cc1OC` [RELCOVAPTAN] was more than 20 µM; that for `C[N+](C)(C)CCOC(N)=O` [CARBAMOYLCHOLINE] was more than 20 µM; that for `O=c1cc(-c2ccc(O)cc2)oc2cc(O)cc(O)c12` [APIGENIN] was more than 20 µM.

Still in this assay, the particulars now being: Severe acute respiratory syndrome coronavirus 2, Vero C1008, 48 h, read-out: pIC50 (converted).
In the case of `CCCC1C(=O)N2C(N(C)C)=Nc3ccc(C)cc3N2C1=O` (stereo unspecified) [APAZONE], the IC50 was more than 20 µM.
With `CNc1ccc(/C=C/c2ccc(OCCOCCOCCF)nc2)cc1` [FLORBETAPIR], the IC50 was more than 20 µM.
Same read-out and setting: with `O=C1Nc2ccc(I)cc2/C1=C/c1cc(Br)c(O)c(Br)c1` the figure was more than 20 µM; with `CC(=O)N(CC(C)C(=O)O)c1c(I)cc(I)c(N)c1I` (stereo unspecified) [IOCETAMIC ACID], more than 20 µM; with `NC(=O)C(c1ccccc1)(c1ccc(F)cc1)c1ccc(F)cc1` [SENICAPOC], more than 20 µM.
As to `COc1ccc2c(c1)CC[C@@H](CN(C)CC(=O)O)[C@H]2c1ccccc1`, the IC50 is more than 20 µM.
In the case of `CCOC(=O)[C@H](CCc1ccccc1)N[C@@H](C)C(=O)N1CCC[C@H]1C(=O)O`, the IC50 was more than 20 µM.
Same read-out and setting: with `N#Cc1nn(-c2c(Cl)cc(C(F)(F)F)cc2Cl)c(N)c1[S+]([O-])C(F)(F)F` (stereo unspecified) [FIPRONIL] the figure was more than 20 µM; with `CC(=O)OCC1OC(n2ccc(=O)[nH]c2=O)C(OC(C)=O)C1OC(C)=O` (stereo unspecified), more than 20 µM; with `CCC(=O)C1(c2cccc(O)c2)CCN(C)CC1` [KETOBEMIDONE], more than 20 µM.
Same read-out and setting: the value for `C[C@@H]1O[C@@H]1P(=O)(O)O` [FOSFOMYCIN] was more than 20 µM; that for `CN(C)CCCn1c(=O)c2ccccc2c2ccccc21` [FANTRIDONE] was more than 20 µM; that for `Cc1cc(-n2nc3ccc(Cl)cc3n2)c(O)c(C(C)(C)C)c1` [BUMETRIZOLE] was more than 20 µM.
For the compound `CC12CCC3C(CC[C@H]4CC(=O)CCC34C)C1CCC2C(=O)CO` (stereo partly specified), the IC50 was more than 20 µM.
In the case of `Cc1cccc(NC(=O)N[C@@H]2N=C(c3ccccc3)c3ccccc3N(C)C2=O)c1` [L-365260], the IC50 was more than 20 µM.
The same measure, in the same setting: with `NC(CO)Cc1ccccc1` (stereo unspecified) the figure was more than 20 µM.
Same read-out and setting: with `CCCCCCCCCCCCCCCC[N+](C)(C)CCN(Cc1ccc(OC)cc1)c1ncccn1` [THONZONIUM] the figure was more than 20 µM; with `COc1cc2c(cc1OC)-c1cc3ccc(OC)c(OC)c3c[n+]1CC2` [PALMITINE], more than 20 µM; with `Cc1ccc(S(=O)(=O)Nc2nc3ccccc3nc2Nc2ccc3nsnc3c2)cc1`, more than 20 µM.
Same read-out and setting: the value for `C=C1c2cccc(O)c2C(=O)C2=C(O)[C@]3(O)C(=O)C(C(N)=O)=C(O)[C@@H](N(C)C)[C@@H]3[C@@H](O)[C@H]12` [METHACYCLINE] was more than 20 µM; that for `CN(C(=O)C(c1ccccc1)c1ccccc1)[C@H](CN1CC[C@H](O)C1)c1ccccc1` [ASIMADOLINE] was more than 20 µM.
Consider `N=C(N)NC(=O)c1nc(Cl)c(N2CCCCCC2)nc1N` [N,N-HEXAMETHYLENEAMILORIDE], for which the IC50 is more than 20 µM.
Same read-out and setting: the value for `C(#CCN1CCCC1)CN1CCCC1` was more than 20 µM.
Take `CCCCCCC1C(=O)O[C@H](C)[C@H](NC(=O)c2cccc(NC=O)c2O)C(=O)O[C@@H](C)[C@@H]1OC(=O)CC(C)C` (stereo partly specified): the IC50 was more than 20 µM.
Same read-out and setting: the value for `CC(CC(c1ccccc1)c1ccccc1)N(C)C` (stereo unspecified) [TRIMETHYLDIPHENYLPROPYLAMINE] was more than 20 µM.
`O=C(CCCN1CCC(n2c(=S)[nH]c3ccccc32)CC1)c1ccc(F)cc1` [TIMIPERONE]: the IC50 was more than 20 µM.
Consider `OCc1cccnc1` [NICOTINYL ALCOHOL], for which the IC50 is more than 20 µM.
For the compound `O=C(c1ccc(/C=C/c2n[nH]c3ccccc23)cc1)N1CCNCC1` [KW-2449], the IC50 is more than 20 µM.
Still for that read-out and setting: with `[2H]C([2H])([2H])OCCCN1CCC(NC(=O)c2cc(Cl)c(N)c3c2OCC3)CC1` the figure was more than 20 µM; with `CC(=O)[C@@]1(O)CC[C@H]2[C@@H]3CCC4=CC(=O)CC[C@]4(C)[C@H]3CC[C@@]21C` [HYDROXYPROGESTERONE], more than 20 µM; with `COc1ccc(S(=O)(=O)N2c3ccc(Cl)cc3[C@](O)(c3ccccc3Cl)[C@@H]2C(=O)N2CCC[C@H]2C(N)=O)cc1OC` [RELCOVAPTAN], more than 20 µM.
Same read-out and setting: the value for `C[N+](C)(C)CCOC(N)=O` [CARBAMOYLCHOLINE] was more than 20 µM; that for `O=c1cc(-c2ccc(O)cc2)oc2cc(O)cc(O)c12` [APIGENIN] was more than 20 µM.

Source of the values: ChEMBL document CHEMBL4651402, “Screening of ~5500 FDA-approved drugs and clinical candidates for anti-SARS-CoV-2 activity” (2021).
